Assay results from US20250019665A1, “SCALABLE BIOMANUFACTURING OF TUMOR ORGANOIDS” (The Board of Trustees of The University of Alabama, priority 2023, published 2025).

How the values were obtained:
GBO (U251) = assay: Live and dead cell staining of GBO; format: cell-based; conditions: GBO in bioreactor, live and dead cells stained
Text: Live and Dead Cell Analysis: Cells were stained with Live and Dead Cell Kit according to manufacturer's protocol (Abcam, ab115347). Sample images were acquired and analyzed using Nikon C2 Laser Scanning Confocal Microscope.

U251 = U251 inoculated as single cells, BR2 bioreactor, 60 and 120 rpm, 5 days of culture, with vs without ROCKi
Method: Next, the effects of Rho-associated protein kinase inhibitor (ROCKi) Y-27632 on different bioreactor culture conditions were tested. […] To verify the effects, U251 was inoculated as single cells with or without ROCKi. […] To test whether low cell proliferation is a result of apoptosis, live and dead cells were stained.

[1] = tested on: SOX2 and CD44 expression in GBO; assay: IHC of GSC markers SOX2 and CD44 in GBO, fluorescence intensity by CTCF; format: cell-based; conditions: GBO with vs without ROCKi
Method: To further examine whether ROCKi maintained GSC stemness, the expression of GSC markers, SOX2 and CD44, were analyzed (FIG. 6B).
where A is the two-dimensional projected area, and p is perimeter. Images were acquired with 12-bit depth, and the raw files were analyzed using NIS-Elements Viewer (Nikon) and ImageJ (NIH). Fluorescence intensity was calculated by the corrected total cell fluorescence (CTCF).
Immunohistochemistry (IHC): GBOs were fixed using 4% paraformaldehyde (Alfa Acsar, J61899AK) overnight and dehydrated using ethanol followed by xylene. Dehydrated GBOs were embedded in paraffin. Paraffin-embedded GBOs were sectioned to 5 to 10 μm thickness. Deparaffinization was done by xylene followed by ethanol. Sectioned GBOs were rehydrated with water. 10 mM sodium citrate buffer with […] was formulated for antigen retrieval and adjusted to pH 6.0. Antigen retrieval was performed at 95° C. for ten minutes. Sectioned GBOs were stained with primary antibodies: CD133, SOX2, CD44, NOTCH1, DLL1, HIF-1α, CD31, CD34, CD144, CD146, α-SMA, NG2, GFAP, Map2, S100B, VEGFR, ZO1, and POU3f2, followed by secondary staining. Cell nuclei were counter stained by Hoechst 33342 (Invitrogen, H1399). Stained GBOs were mounted using ProLong Glass Antifade Mountant with NucBlue (Invitrogen, P36981) and imaged by Nikon C2 Laser Scanning Confocal Microscope.

C[C@@H](N)[C@H]1CC[C@H](C(=O)Nc2ccncc2)CC1 [ROCKi, Y-27632]
apoptosis (GBO (U251)): did not induce apoptosis | cell proliferation (U251): inhibited cell proliferation | expression levels of GSC markers SOX2 and CD44 [1]: not significantly different
